Assay results: patent publication US20250230193A1, “CYCLIC COMPOUND HAVING SELECTIVE KRAS INHIBITORY EFFECT ON HRAS AND NRAS” (CHUGAI SEIYAKU KABUSHIKI KAISHA, priority 2022, published 2025)

What was measured:
[1] = molecular target: GDP-bound NRAS wild-type protein (Homo sapiens, UniProt P01111); assay: Binding to NRAS by surface plasmon resonance (SPR), Single Cycle Kinetics; conditions: KD ratio NRAS/KRAS, class symbols
[2] = molecular target: GDP-bound HRAS wild-type protein (Homo sapiens, UniProt P01112); assay: Binding to HRAS by surface plasmon resonance (SPR), Single Cycle Kinetics; conditions: KD ratio HRAS/KRAS, class symbols
Sequence of GDP-bound HRAS wild-type protein (P01112 whole entry): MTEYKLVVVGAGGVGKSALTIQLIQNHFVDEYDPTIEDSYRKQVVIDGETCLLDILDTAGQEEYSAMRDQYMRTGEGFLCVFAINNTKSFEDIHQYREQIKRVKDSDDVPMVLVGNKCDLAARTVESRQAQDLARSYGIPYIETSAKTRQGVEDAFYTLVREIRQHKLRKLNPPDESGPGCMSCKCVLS

Sequence of GDP-bound NRAS wild-type protein (P01111 whole entry): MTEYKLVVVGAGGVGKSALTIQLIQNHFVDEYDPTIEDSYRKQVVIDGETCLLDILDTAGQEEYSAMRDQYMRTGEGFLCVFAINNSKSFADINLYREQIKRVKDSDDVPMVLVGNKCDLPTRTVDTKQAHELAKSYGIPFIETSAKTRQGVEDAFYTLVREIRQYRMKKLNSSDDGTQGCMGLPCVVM

Row | Structure (SMILES) | NRAS/KRAS (ratio of KD value with respect to GDP-bound NRAS wild-type protein to KD value with respect to KRAS) [1] | HRAS/KRAS (ratio of KD value with respect to GDP-bound HRAS wild-type protein to KD value with respect to KRAS) [2]
1 | CCC[C@H]1C(=O)N[C@@H](CC(C)C)C(=O)N(CCOC)CC(=O)N(C)[C@H]2C/C=C\CCN(C2=O)[C@@H](Cc2ccc(C)cc2)C(=O)N(C)CC(=O)N[C@@H](CCc2ccc(C(F)(F)F)c(OC)c2)C(=O)N2C[C@H](OCC)C[C@H]2C(=O)NC2(CC(C)(C)C2)C(=O)N(C)[C@@H](C2CCCC2)C(=O)N(C)[C@H](C(=O)N(C)C)CC(=O)N1C [PP2522] | B (a compound having 3 or more and less than 10 is denoted as B) | B (a compound having 3 or more and less than 10 is denoted as B)
2 | CCC(CC)[C@H]1C(=O)N(C)[C@H](C(=O)N(C)C)CC(=O)N(C)[C@@H](COC)C(=O)N[C@@H]([C@@H](C)CC)C(=O)N(C2CC2)CC(=O)N(C)[C@H]2C/C=C\CCN(C2=O)[C@@H](CC2CCC(F)(F)CC2)C(=O)N(C)CC(=O)N[C@@H](CCc2cc(F)c(C(F)(F)F)c(F)c2)C(=O)N2C[C@H](OC(C)C)C[C@H]2C(=O)NC2(CC(C)(C)C2)C(=O)N1C [PP2523] | A (a compound having 10 or more and less than 20 is denoted as A) | A (a compound having 10 or more and less than 20 is denoted as A)
3 | CCC(CC)[C@H]1C(=O)N(C)[C@H](C(=O)N(C)C)CC(=O)N(C)[C@@H](COC)C(=O)N[C@@H]([C@@H](C)CC)C(=O)N(C2CC2)CC(=O)N(C)[C@H]2C/C=C\CCN(C2=O)[C@@H](CC2CCC(F)(F)CC2)C(=O)N(C)CC(=O)N[C@@H](CCc2ccc(Cl)c(Cl)c2)C(=O)N2C[C@H](OC(C)C)C[C@H]2C(=O)NC2(CC(C)(C)C2)C(=O)N1C [PP2525] | AA (a compound having 20 or more is denoted as AA) | A (a compound having 10 or more and less than 20 is denoted as A)
4 | C#CCN1CC(=O)N(C)[C@H]2C/C=C\CCN(C2=O)[C@@H](Cc2ccc(C)cc2)C(=O)N(C)CC(=O)N[C@@H](CCc2ccc(C(F)(F)F)c(Cl)c2)C(=O)N2C[C@H](OCC)C[C@H]2C(=O)NC2(CC(C)(C)C2)C(=O)N(C)[C@@H](C2CCCC2)C(=O)N(C)[C@H](C(=O)N(C)C)CC(=O)N(C)[C@@H](CCC)C(=O)N[C@@H](CC(C)C)C1=O [PP2526] | A (a compound having 10 or more and less than 20 is denoted as A) | B (a compound having 3 or more and less than 10 is denoted as B)
5 | CCC[C@H]1C(=O)N[C@@H]([C@@H](C)CC)C(=O)N(C2CC2)CC(=O)N(C)[C@H]2C/C=C\CCN(C2=O)[C@@H](Cc2ccc(C(F)F)cc2)C(=O)N(C)CC(=O)N[C@@H](CCc2cc(F)c(C(F)(F)F)c(F)c2)C(=O)N2C[C@H](OCC)C[C@H]2C(=O)NC2(CC(C)(C)C2)C(=O)N(C)[C@@H](C(CC)CC)C(=O)N(C)[C@H](C(=O)N(C)C)CC(=O)N1C [PP2527] | AA (a compound having 20 or more is denoted as AA) | A (a compound having 10 or more and less than 20 is denoted as A)
6 | CCC[C@H]1C(=O)N[C@@H](CC(C)C)C(=O)N(CC)CC(=O)N(C)[C@H]2C/C=C\CCN(C2=O)[C@@H](Cc2ccc(C)cc2)C(=O)N(C)CC(=O)N[C@@H](CCc2ccc(C(F)(F)F)c(Cl)c2)C(=O)N2C[C@H](OCC)C[C@H]2C(=O)NC2(CC(C)(C)C2)C(=O)N(C)[C@@H](C2CCCC2)C(=O)N(C)[C@H](C(=O)N(C)C)CC(=O)N1C [PP2528] | A (a compound having 10 or more and less than 20 is denoted as A) | B (a compound having 3 or more and less than 10 is denoted as B)
7 | CCC[C@H]1C(=O)N[C@@H]([C@@H](C)CC)C(=O)N(C2CC2)CC(=O)N(C)[C@H]2C/C=C\CCN(C2=O)[C@@H](Cc2ccc(C(F)F)cc2)C(=O)N(C)CC(=O)N[C@@H](CCc2cc(F)c(C(F)(F)F)c(F)c2)C(=O)N2C[C@H](OC(C)C)C[C@H]2C(=O)NC2(CC(C)(C)C2)C(=O)N(C)[C@@H](C(CC)CC)C(=O)N(C)[C@H](C(=O)N(C)C)CC(=O)N1C [PP2529] | AA (a compound having 20 or more is denoted as AA) | A (a compound having 10 or more and less than 20 is denoted as A)
8 | CCC[C@H]1C(=O)N[C@@H]([C@@H](C)CC)C(=O)N(C)CC(=O)N(C)[C@H]2C/C=C\CCN(C2=O)[C@@H](Cc2ccc(C(F)F)cc2)C(=O)N(C)CC(=O)N[C@@H](CCc2ccc(Cl)c(Cl)c2)C(=O)N2C[C@H](OCC)C[C@H]2C(=O)NC2(CC(C)(C)C2)C(=O)N(C)[C@@H](C(CC)CC)C(=O)N(C)[C@H](C(=O)N(C)C)CC(=O)N1C [PP2531] | AA (a compound having 20 or more is denoted as AA) | A (a compound having 10 or more and less than 20 is denoted as A)
9 | CCC[C@H]1C(=O)N[C@@H](CC(C)C)C(=O)N(C2CC2)CC(=O)N(C)[C@H]2C/C=C\CCN(C2=O)[C@@H](Cc2ccc(C)cc2)C(=O)N(C)CC(=O)N[C@@H](CCc2cc(F)c(C(F)(F)F)c(F)c2)C(=O)N2C[C@H](OCC)C[C@H]2C(=O)NC2(CCC2)C(=O)N(C)[C@@H](C2CCCC2)C(=O)N(C)[C@H](C(=O)N(C)C)CC(=O)N1C [PP2532] | A (a compound having 10 or more and less than 20 is denoted as A) | B (a compound having 3 or more and less than 10 is denoted as B)
10 | CCC(CC)[C@H]1C(=O)N(C)[C@H](C(=O)N(C)C)CC(=O)N(C)[C@@H](COC)C(=O)N[C@@H]([C@@H](C)CC)C(=O)N(C)CC(=O)N(C)[C@H]2C/C=C\CCN(C2=O)[C@@H](Cc2ccc(C(F)(F)F)cc2)C(=O)N(C)CC(=O)N[C@@H](CCc2ccc(Cl)c(Cl)c2)C(=O)N2C[C@H](OC(C)C)C[C@H]2C(=O)NC2(CC(C)(C)C2)C(=O)N1C [PP2533] | AA (a compound having 20 or more is denoted as AA) | A (a compound having 10 or more and less than 20 is denoted as A)
11 | CCC[C@H]1C(=O)N[C@@H](CC(C)C)C(=O)N(C2CC2)CC(=O)N(C)[C@H]2C/C=C\CCN(C2=O)[C@@H](Cc2ccc(C)cc2)C(=O)N(C)CC(=O)N[C@@H](CCc2ccc(C(F)(F)F)c(OC)c2)C(=O)N2C[C@H](OCC)C[C@H]2C(=O)NC2(CCC2)C(=O)N(C)[C@@H](C2CCCC2)C(=O)N(C)[C@H](C(=O)N(C)C)CC(=O)N1C [PP2534] | A (a compound having 10 or more and less than 20 is denoted as A) | B (a compound having 3 or more and less than 10 is denoted as B)
12 | CCC[C@H]1C(=O)N[C@@H]([C@@H](C)CC)C(=O)N(C)CC(=O)N(C)[C@H]2C/C=C\CCN(C2=O)[C@@H](Cc2ccc(C(F)F)cc2)C(=O)N(C)CC(=O)N[C@@H](CCc2ccc(Cl)c(Cl)c2)C(=O)N2C[C@H](OC(C)C)C[C@H]2C(=O)NC2(CC(C)(C)C2)C(=O)N(C)[C@@H](C(CC)CC)C(=O)N(C)[C@H](C(=O)N(C)C)CC(=O)N1C [PP2535] | AA (a compound having 20 or more is denoted as AA) | A (a compound having 10 or more and less than 20 is denoted as A)
13 | C#CCN1CC(=O)N(C)[C@H]2C/C=C\CCN(C2=O)[C@@H](Cc2ccc(C)cc2)C(=O)N(C)CC(=O)N[C@@H](CCc2cc(F)c(C(F)(F)F)c(F)c2)C(=O)N2C[C@H](OCC)C[C@H]2C(=O)NC2(CCC2)C(=O)N(C)[C@@H](C2CCCC2)C(=O)N(C)[C@H](C(=O)N(C)C)CC(=O)N(C)[C@@H](CCC)C(=O)N[C@@H](CC(C)C)C1=O [PP2536] | A (a compound having 10 or more and less than 20 is denoted as A) | B (a compound having 3 or more and less than 10 is denoted as B)
14 | CCC[C@H]1C(=O)N[C@@H]([C@@H](C)CC)C(=O)N(C)CC(=O)N(C)[C@H]2C/C=C\CCN(C2=O)[C@@H](Cc2ccc(C)cc2)C(=O)N(C)CC(=O)N[C@@H](CCc2ccc(Cl)c(Cl)c2)C(=O)N2C[C@H](OC(C)C)C[C@H]2C(=O)NC2(CC(C)(C)C2)C(=O)N(C)[C@@H](C(CC)CC)C(=O)N(C)[C@H](C(=O)N(C)C)CC(=O)N1C [PP2537] | AA (a compound having 20 or more is denoted as AA) | A (a compound having 10 or more and less than 20 is denoted as A)
15 | CCC[C@H]1C(=O)N[C@@H](CC(C)C)C(=O)N(CC)CC(=O)N(C)[C@H]2C/C=C\CCN(C2=O)[C@@H](Cc2ccc(C)cc2)C(=O)N(C)CC(=O)N[C@@H](CCc2cc(F)c(C(F)(F)F)c(F)c2)C(=O)N2C[C@H](OCC)C[C@H]2C(=O)NC2(CCC2)C(=O)N(C)[C@@H](C2CCCC2)C(=O)N(C)[C@H](C(=O)N(C)C)CC(=O)N1C [PP2539] | A (a compound having 10 or more and less than 20 is denoted as A) | B (a compound having 3 or more and less than 10 is denoted as B)
